Data as given in patent US5726195A, “Aminoacyl adenylate mimics as novel antimicrobial and antiparasitic agents” (Cubist Pharmaceuticals, Inc., priority 1996, dated 1998).
In brackets after ≈: the same amount, converted by molar mass.

Key:
[1] = target: E. Coli. IleRS (isoleucyl-tRNA synthetase) (Escherichia coli, UniProt P00956); assay: Inhibition of isoleucyl-tRNA synthetase (aminoacylation of tRNA with [3H]isoleucine); format: biochemical; settings: E. coli enzyme; irreversible inhibitors: values are 50% of the active enzyme concentration; read-out: IC50 E.Coli. IleRS
Protocol: The extent of aminoacylation of tRNA with isoleucine catalyzed by isoleucyl-tRNA synthetase enzyme was measured by monitoring the incorporation of [3H] isoleucine into trichloroacetic acid-precipitable tRNA in the presence of a compound of Formula I, as compared with activity in the absence of inhibitor. The isoleucyl-tRNA synthetase enzymes are well known in the prior art and can be obtained and purified by known methods (for example see: D. Kern et at., Biochimie, 61, 1257-1272 (1979) and J. Gilbart et al., Antimicrobial Agents and Chemotherapy, 37 (1), 32-38 (1993)).
Isoleucyl-tRNA synthetase enzyme (0.08-2.0 nM, preferably, 0.4 nM) was first pre-incubated at 25° C. with 0.05 mg/ml bovine serum albumin, 10 mM DTT, 2.5% dimethyl sulfoxide, with or without a compound of Formula I, for 20 minutes. At this point a substrate solution (a solution containing the following: ATP, [^3 H]isoleucine, tRNA, HEPES, magnesium chloride, and potassium chloride) was added to give a final concentration of 0.0286 mg/ml bovine serum albumin, 5.7 mM DTT, 4 mM ATP, 5-20 μM [^3 H] isoleucine (1-15 Ci/mmol), 90 μM crude tRNA or 2 μM isoleucine specific tRNA, 1.4% dimethyl sulfoxide, 30 mM HEPES (pH 7.5), 10 mM magnesium chloride, and 50 mM potassium chloride and incubated at 25° C. Aliquots were removed at selected times (e.g. 5, 10, 20 minutes) and applied to 3MM filter paper discs (Whatman) and then dropped into 5% (wt/vol) trichloroacetic acid for >5 minutes. Filters were washed for three 10-minute periods in 5% trichloroacetic acid, rinsed in 95% ethanol and diethyl ether, and radioactivity was measured with Betafluor™ (National Diagnostics) by liquid scintillation counting.
Inhibitor activity is reported in Table II as an IC50 value (inhibitor concentration causing 50% inhibition of enzyme activity) per a known amount of active enzyme. In the case of irreversible inhibitors (1:1 stoichiometry) these values are 50% of the active enzyme concentration. The IC50 (in nM, E. coli) values of representative compounds of the present invention are listed in the second column of Table II.

[2] = test system: S. epidermidis ATCC 33501; assay: Whole cell antimicrobial screen, MIC; format: cell-based; settings: Staphylococcus epidermidis, ATCC33501
Protocol: (§1) Compounds were tested for antimicrobial activity against a panel of organisms according to standard procedures described by the National Committee for Clinical Laboratory Standards (NCCLS document M7-A3, Vol. 13, No. 25, 1993/NCCLS document M27-P, Vol. 12, No. 25, 1992). Compounds were dissolved in 100% dimethyl sulfoxide and were diluted to the final reaction concentration (0.1 μg/mL-500 μg/mL) in microbial growth media. In al cases the final concentration of dimethyl sulfoxide incubated with cells is less than or equal to 1%. For minimum inhibitory concentration (MIC) calculations, 2-fold dilutions of compounds were added to wells of a microtiter plate containing 5×10^4 bacteria or fungal cells in a final volume of 100 lambda of an appropriate media (Mueller-Hinton Broth; Haemophilus Test Media; Mueller-Hinton Broth+5% Sheep Blood; or […]). Plates were incubated overnight at an appropriate temperature (30° C.-37° C.) and optical densities (measure of cell growth) were measured using a commercial plate reader. The MIC value is defined as the lowest compound concentration inhibiting growth of the test organism.

S. aureus ATCC 6538P = assay: Whole cell antimicrobial screen, MIC; format: cell-based; settings: Staphylococcus aureus, ATCC6538P
Protocol: as §1

C. albicans ATCC 10231 = assay: Whole cell antimicrobial screen, MIC; format: cell-based; settings: Candida albicans, ATCC10231
Protocol: as §1

S. aureus ATCC 14154 = assay: Whole cell antimicrobial screen, MIC; format: cell-based; settings: Staphylococcus aureus, ATCC14154
Protocol: as §1

E. faecium ATCC 6569 = assay: Whole cell antimicrobial screen, MIC; format: cell-based; settings: Enterococcus faecium, ATCC6569
Protocol: as §1

[3] = test system: S. saprophyticus ATCC 35552; assay: Whole cell antimicrobial screen, MIC; format: cell-based; settings: Staphylococcus saprophyticus, ATCC35552
Protocol: as §1

E. faecalis ATCC 33011 = assay: Whole cell antimicrobial screen, MIC; format: cell-based; settings: Enterococcus faecalis, ATCC33011
Protocol: as §1

E. Coli. IleRS (isoleucyl-tRNA synthetase), sequence (P00956 whole entry): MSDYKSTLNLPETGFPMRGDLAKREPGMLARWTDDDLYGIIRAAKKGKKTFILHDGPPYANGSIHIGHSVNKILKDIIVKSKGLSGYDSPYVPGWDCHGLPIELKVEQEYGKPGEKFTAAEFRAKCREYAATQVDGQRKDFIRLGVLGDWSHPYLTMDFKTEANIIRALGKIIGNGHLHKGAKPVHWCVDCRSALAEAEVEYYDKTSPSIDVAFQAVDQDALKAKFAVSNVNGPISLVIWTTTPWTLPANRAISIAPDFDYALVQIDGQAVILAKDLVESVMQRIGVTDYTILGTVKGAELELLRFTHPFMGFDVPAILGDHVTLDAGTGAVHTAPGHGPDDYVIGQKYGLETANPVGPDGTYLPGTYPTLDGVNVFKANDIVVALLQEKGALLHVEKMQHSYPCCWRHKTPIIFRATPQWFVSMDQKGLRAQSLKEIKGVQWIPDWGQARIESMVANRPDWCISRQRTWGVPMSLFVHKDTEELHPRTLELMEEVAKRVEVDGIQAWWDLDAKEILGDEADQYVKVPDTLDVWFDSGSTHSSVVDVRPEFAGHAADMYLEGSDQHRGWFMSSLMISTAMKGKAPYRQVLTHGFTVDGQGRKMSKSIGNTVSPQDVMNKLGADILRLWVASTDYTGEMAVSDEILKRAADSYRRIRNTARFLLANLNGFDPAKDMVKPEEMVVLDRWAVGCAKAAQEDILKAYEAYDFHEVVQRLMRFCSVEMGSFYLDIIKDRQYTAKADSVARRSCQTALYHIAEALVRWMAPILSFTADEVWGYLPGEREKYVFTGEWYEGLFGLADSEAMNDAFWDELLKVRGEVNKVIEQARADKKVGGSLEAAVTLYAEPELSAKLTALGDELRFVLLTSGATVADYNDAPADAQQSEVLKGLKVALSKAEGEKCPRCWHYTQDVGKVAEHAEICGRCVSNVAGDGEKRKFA

Compound	IC50 [1] [nM]	MIC [2] [µg/mL]	MIC (S. aureus ATCC 6538P) [µg/mL]	MIC (C. albicans ATCC 10231) [µg/mL]	MIC (S. aureus ATCC 14154) [µg/mL]	MIC (E. faecium ATCC 6569) [µg/mL]	MIC [3] [µg/mL]	MIC (E. faecalis ATCC 33011) [µg/mL]
CC[C@H](C)[C@H](N)C(=O)NS(=O)(=O)OC[C@H]1O[C@@H](CCn2nnc(-c3ccc(C#Cc4ccc([N+](=O)[O-])s4)cc3)n2)[C@H](O)[C@@H]1O [I, [S-(R*,R*)]-3,6-anhydro-1,2-dideoxy-1-[5-[4-[(5-nitro-2-thienyl)ethynyl]phenyl]-2H-tetrazol-2-yl]-D-allo-heptitol 7-(2-amino-3-methyl-1-oxopentyl)sulfamate]	1.3	1 (≈ 1.54 µM)	1 (≈ 1.54 µM)	> 500	5 (≈ 7.7 µM)	> 500	2 (≈ 3.08 µM)	> 500
CC[C@H](C)[C@H](N)C(=O)NS(=O)(=O)OC[C@H]1O[C@@H](CCn2nnc(-c3ccc(C#Cc4cccc([N+](=O)[O-])c4)cc3)n2)[C@H](O)[C@@H]1O [III]	3	1 (≈ 1.55 µM)	50 (≈ 77.7 µM)	> 500	50 (≈ 77.7 µM)	> 500	5 (≈ 7.77 µM)	> 500
CC[C@H](C)[C@H](N)C(=O)NS(=O)(=O)OC[C@H]1O[C@@H](CCn2nnc(-c3ccc([N+](=O)[O-])cc3)n2)[C@H](O)[C@@H]1O [VIII]	0.5	10 (≈ 18.4 µM)	500 (≈ 920 µM)	> 500	500 (≈ 920 µM)	500 (≈ 920 µM)	100 (≈ 184 µM)	> 500
CC[C@H](C)[C@H](N)C(=O)NS(=O)(=O)OC[C@H]1O[C@@H](CCn2nnc(-c3ccc(C(=O)OC)cc3)n2)[C@H](O)[C@@H]1O [VII]	0.53	10 (≈ 18 µM)	100 (≈ 180 µM)	> 500	500 (≈ 898 µM)	100 (≈ 180 µM)	50 (≈ 89.8 µM)	> 500
CC[C@H](C)[C@H](N)C(=O)NS(=O)(=O)OC[C@H]1O[C@@H](CCn2nnc(-c3ccc(C=C(Br)Br)cc3)n2)[C@H](O)[C@@H]1O [V]	11	25 (≈ 36.6 µM)	50 (≈ 73.3 µM)	500 (≈ 733 µM)	100 (≈ 147 µM)	100 (≈ 147 µM)	25 (≈ 36.6 µM)	500 (≈ 733 µM)
CC[C@H](C)[C@H](N)C(=O)NS(=O)(=O)OC[C@H]1O[C@@H](CCn2nnc(-c3ccc(Oc4ccc(N)cc4)cc3)n2)[C@H](O)[C@@H]1O [XIII]	0.4	10 (≈ 16.5 µM)	50 (≈ 82.6 µM)	> 500	100 (≈ 165 µM)	25 (≈ 41.3 µM)	25 (≈ 41.3 µM)	> 500
CC[C@H](C)[C@H](N)C(=O)NS(=O)(=O)OC[C@H]1O[C@@H](CCn2nnc(-c3ccc(Oc4ccc(OC)cc4)cc3)n2)[C@H](O)[C@@H]1O [XII]	3	< 5	25 (≈ 40.3 µM)	500 (≈ 806 µM)	50 (≈ 80.6 µM)	10 (≈ 16.1 µM)	25 (≈ 40.3 µM)	500 (≈ 806 µM)
CC[C@H](C)[C@H](N)C(=O)NS(=O)(=O)OC[C@H]1O[C@@H](CCn2nnc(-c3ccc(Oc4cccc(C(F)(F)F)c4)cc3)n2)[C@H](O)[C@@H]1O [XIV]	1.7	5 (≈ 7.59 µM)	10 (≈ 15.2 µM)	> 500	25 (≈ 38 µM)	10 (≈ 15.2 µM)	10 (≈ 15.2 µM)	100 (≈ 152 µM)
